# Data reported in patent US20250114487A1, “COMBINATION TREATMENT OF TUMORS” (The University of Chicago, priority 2023, published 2025).
# Where two headings read alike, the source gives them in different places.
# Tests used:
# SSTR2 = assay: Western blot of SSTR2 levels, SSTR2 positive QGP1 cells; type: cell-based; conditions: SSTR2 positive QGP1 cells treated with fulvestrant or fulvestrant and irradiation
# QGP-1 cells [1] = assay: Cell counting after irradiation with Fulvestrant and PARPi Talazoparib, QGP-1 cells; type: cell-based; conditions: fulvestrant in combination with irradiation vs fulvestrant alone, 3 days after irradiation
# Description: Total number of cells were counted 3 days after irradiation.
# ER36 or ER56 [2] = assay: Western blot of ERα isoform levels, NCI-H727 cells; type: cell-based; design: dose or concentration left out as unconfirmed; conditions: fulvestrant
# Protocol: (§1) Western blot analysis was conducted in various NET cell lines to investigate expression levels of various ERα isoforms. The breast cancer cell line MCF7 was used as a positive control. […] In contrast, the most common isoform of ERα, ER66 kDa, was not present in QGP1 cells, as compared to MCF7. Expression of ER36 was further verified in NCI-H727 cells (FIG. 8B). Expression of ER56 was further verified in NCI-H727 cells and BON1 cells (FIG. 8C). […] Without wishing to be bound by theory, it is possible that this lack of effect of fulvestrant is because ER36 and ER 56 lack the […] binding region to which fulvestrant binds. […] (FIG. 8E).
# GOT-1 cells = assay: In vitro radiosensitization, GOT-1 cells; type: cell-based
# Description: (§2) For in vitro experiments, various neuroendocrine tumor (NET) cell lines were used from different primary tumor origins. Specifically, pancreatic cells (QGP-1), small bowel cells (GOT-1), and lung cells (NCI-H727) were used. Cells were supplemented with estrogen (E2)-free or E2-supplemented media to determine the effects of E2 on cell proliferation and DNA repair factors. ESR1 was inhibited by si-RNA mediated knockdown of ESR1 or by administration of the selective estrogen receptor degrader Fulvestrant. Knockdown of ESR1 was achieved using […] siRNA. qPCR was performed to verify knockdown by quantifying ESR1 mRNA levels. For administration of Fulvestrant, 100 nm Fulvestrant was used.
# (§3) Radiation (IR) was administered using a dose of 4 Gy using external beam radiation therapy (EBRT). Radiation was administered 24 hours following ESR1 inhibition.
# (§4) Cells were treated with […] siRNA against ESR1 followed by irradiation (4 Gy dose), or treated with Fulvestrant followed by irradiation (4 Gy dose). […] Without wishing to be bound by theory, it is possible that estrogen inhibition radiosensitizes cells by decreasing expression of genes involved in DNA repair pathways. This was evaluated by measuring mRNA levels of DNA repair factors Rad51, BRCA1, and BRCA2 following treatment of QGP-1 cells with Fulvestrant for 36 hours or 72 hours.
# ER36 or ER56 [3] = assay: Western blot of ERα isoform levels, QGP1 cells; type: cell-based; conditions: 100 mM fulvestrant
# Protocol: as §1
# QGP-1 cells [4] = assay: In vitro radiosensitization, QGP-1 cells; type: cell-based; conditions: 3.5 days following 100 nM Fulvestrant + IR (4 Gy) vs IR alone
# Description: as §2, §3, §4
# QGP1 cells = assay: QGP1 cell number after irradiation in the presence or absence of estrogen; type: cell-based; conditions: 3.5 days after irradiation (4 Gy)
# Protocol: Additional experiments were conducted to further evaluated the mechanism behind fulvestrant-induced radiosensitization. QGP1 cells were cultured in the presence or absence of estrogen and treated with fulvestrant, irradiation, or fulvestrant and irradiation. The number of cells were evaluated 3.5 days after irradiation (4 Gy). […] This is a strong indication that the effect of fulvestrant is off-target and not through the estrogen receptor pathway. RNA sequencing experiments were conducted to further evaluate the potential mechanism behind radiosensitization.
# [5] = tested on: ESR1, Rad51, BRCA1, BRCA2 mRNA; assay: qPCR of mRNA expression of DNA repair factors in QGP-1 cells; type: cell-based; conditions: QGP-1 cells treated with Fulvestrant for 36 hours or 72 hours
# Protocol: For in vitro experiments, various neuroendocrine tumor (NET) cell lines were used from different primary tumor origins. Specifically, pancreatic cells (QGP-1), small bowel cells (GOT-1), and lung cells (NCI-H727) were used. Cells were supplemented with estrogen (E2)-free or E2-supplemented media to determine the effects of E2 on cell proliferation and DNA repair factors. […] Knockdown of ESR1 was achieved using 30 uM siRNA. qPCR was performed to verify knockdown by quantifying ESR1 mRNA levels.
# QGP-1 cells were growth in media with standard fetal bovine serum (WT), E2-free media for 7 days, or E-2 free media for 2 days followed by growth in E2 media containing 1 uM E2 additive for 24 hours. mRNA expression of DNA repair factors was evaluated by qPCR.
# QGP1.SSTR2 mice = assay: In vivo PRRT sensitization, xenograft mice (QGP1.SSTR2)
# Protocol: In vivo studies were conducted in mice. […] Tumor volume and survival was assessed up to 100 days post injection.
# QGP-1 tumors = assay: In vivo radiosensitization, mouse xenograft model with QGP-1 tumors; conditions: for cumulative survival: IR (4 Gy) + 5 mg Fulvestrant subcutaneously compared to irradiation alone and Fulvestrant alone; for tumor volume size: compared to control groups
# Protocol: For in vivo experiments, a mouse xenograft model created using QGP-1 cells was used.
# as §3
# Radiosensitization was subsequently evaluated in vivo using a mouse model harboring QGP-1 tumors. Four different treatment groups were used. One group was a control that received neither irradiation nor fulvestrant. The second group received fulvestrant alone (5 mg, subcutaneous). The third group received irradiation alone. The fourth group received irradiation and fulvestrant (5 mg. subcutaneous). Tumor volume and overall survival was evaluated. Tumor volume was evaluated at day 7, day 15, day 24, and day 35 post treatment. […] Control mice were euthanized between day 15 and day 24 due to deteriorating health. At day 24 and day 35, no control mice were surviving and as such results presented therein only show treatment with fulvestrant, treatment with irradiation, or treatment with fulvestrant and irradiation.
# QGP1.SSTR2 cells [6] = assay: Additional clonogenic assays, QGP1.SSTR2 cells; type: cell-based; conditions: single agent (5.6 μCi Lu-177 DOTA-TATE or fulvestrant) compared to untreated cells
# Protocol: Additional clonogenic assays and in-vivo experiments were conducted using Lu-177 DOTA-TATE in combination with Fulvestrant. […] Results are quantified in FIG. 12B. Treatment with Lu-177-DOTA-TATE alone decreased the number of colonies compared to untreated cells and cells treated with fulvestrant alone. Treatment with fulvestrant alone decreased the number of colonies compared to untreated cells.
# [7] = tested on: QGP1.SSTR2 cells or QGP1 cells not expressing SSTR2
# Protocol: Cells were treated with PRRT alone, or PRRT in combination with estrogen receptor inhibition or all-trans-retinoic acid (ATRA).
# QGP1.SSTR2 cells [8] = conditions: 5.6 μCi dose of Lu-177 DOTA-TATE, alone or with 1 uM ATRA or 100 nM Fulvestrant
# Protocol: For in vitro studies, QGP1 cells (pancreatic NET cells) were engineered to express luciferase (QGP1.luc) or to express luciferase and overexpress the somatostatin receptor 2 (SSTR2) (QGP1.SSTR2.luc). Cells were treated with PRRT alone, or PRRT in combination with estrogen receptor inhibition or all-trans-retinoic acid (ATRA).
smiles,measurement,setting,value
C[C@]12CC[C@@H]3c4ccc(O)cc4C[C@@H](CCCCCCCCC[S+]([O-])CCCC(F)(F)C(F)(F)F)[C@H]3[C@@H]1CC[C@@H]2O (some centres unmarked) [Fulvestrant],SSTR2 levels,SSTR2,did not increase
same,cell death,QGP-1 cells [1],increases cell death
same,ER36 or ER56 levels,ER36 or ER56 [2],not found to influence
same,total cell growth,GOT-1 cells; 3.5 days following 100 nM Fulvestrant + irradiation (4 Gy) vs irradiation alone,significant decrease
same,total cell,GOT-1 cells; 5 days following 100 nM Fulvestrant + IR (4 Gy) vs IR alone,significant decrease
same,ER36 or ER56 levels,ER36 or ER56 [3],not found to influence
same,total cell growth,QGP-1 cells [4],significant decrease
same,radiosensitization (number of cells),QGP1 cells,radiosensitizes cells regardless of whether estrogen was present or not present
same,"mRNA levels of Rad51, BRCA1, BRCA2",[5],lower
same,survival,QGP1.SSTR2 mice; compared to control mice,did not show significant differences
same,cumulative survival,QGP-1 tumors,significantly improved survival
same,cumulative survival,QGP-1 tumors; listed as Fulevestrant,significantly improved cumulative survival
same,"survival, up to","QGP-1 tumors; combination of irradiation (4 Gy) and fulvestrant (5 mg, subcutaneous)",up to 70 days
same,tumor volume,"QGP-1 tumors; day 35 post treatment, irradiation and fulvestrant compared to irradiation alone",significant decrease
same,tumor volume size,"QGP-1 tumors; fulvestrant alone (5 mg, subcutaneous)",decreased
same,"survival, until day","QGP-1 tumors; fulvestrant alone (5 mg, subcutaneous), untreated control not past day 18",≤ 28 days
same,survival,QGP-1 tumors; fulvestrant alone vs untreated control mice,significantly longer survival
same,tumor volume size,"QGP-1 tumors; irradiation plus fulvestrant (5 mg, subcutaneous)",decreased
same,number of colonies,QGP1.SSTR2 cells [6],decreased
"C[C@@H](O)[C@H](NC(=O)[C@@H]1CSSC[C@H](NC(=O)[C@@H](Cc2ccccc2)NC(=O)CN2CCN(CC(=O)[O-])CCN(CC(=O)[O-])CCN(CC(=O)[O-])CC2)C(=O)N[C@@H](Cc2ccc(O)cc2)C(=O)N[C@H](Cc2c[nH]c3ccccc23)C(=O)N[C@@H](CCCCN)C(=O)N[C@@H]([C@@H](C)O)C(=O)N1)C(=O)O.[177Lu+3] [Lu-177 DOTA-TATE, lutetium Lu-177 DOTA-TATE]",cell count,"[7]; 5.6 μCi Lu-177 DOTA-TATE alone, FIG. 10B",about 150
same,cell count,"[7]; 14.6 μCi Lu-177 DOTA-TATE alone, FIG. 10C",less than 40
same,colony count,QGP1.SSTR2 cells [8],about 40 cells
same,mice surviving at day 100,QGP1.SSTR2 mice; Lu-177-DOTA-TATE alone,less than 25%
same,survival,QGP1.SSTR2 mice; compared to control mice and mice treated with fulvestrant,significantly longer
same,tumor volume,"QGP1.SSTR2 mice; day 7 and day 21 post injection, compared to control mice and mice treated with fulvestrant alone",significantly smaller
same,number of colonies,QGP1.SSTR2 cells [6],decreased
